What was measured:
[1] = molecular target: T1, Msh2–Msh3 (Msh2HA–Msh3) (Saccharomyces cerevisiae, UniProt P25336+P25847); test: single-molecule diffusion on DNA curtains (TIRF); assay type: binding; conditions: 1 mM ADP, 50 mM NaCl, 40 mM Tris-HCl pH 8; functional effect on diffusion along homoduplex DNA
T1 construct: heterodimer overexpressed in and purified from yeast; labelled with anti-HA quantum dots in single-molecule tests
T1 sequence (P25847 1-964): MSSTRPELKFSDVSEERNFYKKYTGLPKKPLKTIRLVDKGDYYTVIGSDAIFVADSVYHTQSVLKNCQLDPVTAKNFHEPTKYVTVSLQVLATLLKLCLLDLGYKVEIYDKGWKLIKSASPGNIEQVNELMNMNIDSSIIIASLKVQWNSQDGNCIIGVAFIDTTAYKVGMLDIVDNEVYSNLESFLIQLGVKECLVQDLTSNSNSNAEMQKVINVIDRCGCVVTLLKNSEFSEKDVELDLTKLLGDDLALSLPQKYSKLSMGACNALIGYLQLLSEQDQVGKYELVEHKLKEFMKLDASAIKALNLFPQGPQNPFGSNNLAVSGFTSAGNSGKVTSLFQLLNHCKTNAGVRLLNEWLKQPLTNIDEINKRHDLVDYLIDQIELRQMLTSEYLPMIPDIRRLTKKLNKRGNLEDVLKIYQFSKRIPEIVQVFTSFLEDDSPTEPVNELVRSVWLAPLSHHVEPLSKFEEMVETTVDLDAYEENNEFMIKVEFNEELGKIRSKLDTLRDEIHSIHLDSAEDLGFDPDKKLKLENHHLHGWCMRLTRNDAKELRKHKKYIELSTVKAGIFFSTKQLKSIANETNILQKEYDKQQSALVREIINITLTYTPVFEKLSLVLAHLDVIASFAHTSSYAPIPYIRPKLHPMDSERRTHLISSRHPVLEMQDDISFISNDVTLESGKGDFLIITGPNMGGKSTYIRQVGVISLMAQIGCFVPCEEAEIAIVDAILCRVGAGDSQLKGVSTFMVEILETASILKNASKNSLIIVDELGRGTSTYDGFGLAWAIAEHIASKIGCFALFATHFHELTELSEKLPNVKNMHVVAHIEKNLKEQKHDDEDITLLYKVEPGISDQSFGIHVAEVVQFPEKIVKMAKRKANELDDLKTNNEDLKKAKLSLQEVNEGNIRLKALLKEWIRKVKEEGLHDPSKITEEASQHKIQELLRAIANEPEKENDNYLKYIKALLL
T1 sequence (P25336 1-1018): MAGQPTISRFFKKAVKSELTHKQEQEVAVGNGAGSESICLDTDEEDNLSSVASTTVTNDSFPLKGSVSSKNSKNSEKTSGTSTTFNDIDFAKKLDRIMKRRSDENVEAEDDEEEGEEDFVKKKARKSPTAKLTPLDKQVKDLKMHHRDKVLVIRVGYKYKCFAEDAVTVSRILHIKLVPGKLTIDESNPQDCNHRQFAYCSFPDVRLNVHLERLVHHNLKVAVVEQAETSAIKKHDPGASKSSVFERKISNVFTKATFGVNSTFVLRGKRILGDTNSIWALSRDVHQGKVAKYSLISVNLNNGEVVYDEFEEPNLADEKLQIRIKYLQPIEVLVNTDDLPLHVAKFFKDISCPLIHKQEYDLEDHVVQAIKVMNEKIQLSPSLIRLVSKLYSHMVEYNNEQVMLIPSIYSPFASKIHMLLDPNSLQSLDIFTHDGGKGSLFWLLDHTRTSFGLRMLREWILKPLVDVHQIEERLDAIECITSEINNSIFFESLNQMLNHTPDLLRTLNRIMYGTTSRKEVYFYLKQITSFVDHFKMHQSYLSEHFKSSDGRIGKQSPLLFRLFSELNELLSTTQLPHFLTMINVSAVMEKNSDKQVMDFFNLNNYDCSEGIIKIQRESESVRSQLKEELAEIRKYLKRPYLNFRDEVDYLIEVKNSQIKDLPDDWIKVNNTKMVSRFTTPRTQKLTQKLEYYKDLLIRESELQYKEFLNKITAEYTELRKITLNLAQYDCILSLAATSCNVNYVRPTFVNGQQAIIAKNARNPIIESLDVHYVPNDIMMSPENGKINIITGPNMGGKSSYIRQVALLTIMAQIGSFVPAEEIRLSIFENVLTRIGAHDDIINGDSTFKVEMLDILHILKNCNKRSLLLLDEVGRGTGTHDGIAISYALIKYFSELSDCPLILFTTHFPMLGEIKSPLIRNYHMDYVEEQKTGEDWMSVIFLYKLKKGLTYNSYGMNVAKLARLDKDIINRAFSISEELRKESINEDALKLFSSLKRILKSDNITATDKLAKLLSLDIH

[2] = molecular target: T1, Msh2–Msh3 (Msh2HA–Msh3); test: ATPase assay, gamma-32P-ATP, PEI-cellulose TLC; assay type: biochemical; conditions: 20-250 μM ATP, 2 mM MgCl2, pH 7.5, 30 °C, 100 nM protein, with or without 2 μM DNA
[3] = molecular target: Msh2(HA)-Msh3 (Saccharomyces cerevisiae, UniProt P25847;P25336 1-964;1-1018); test: EMSA; no antibody or QD; EMSA: 20 mM HEPES pH 7.5, 100 mM NaCl, 1 mM DTT, 40 ug/ml BSA, 2 mM MgCl2, RT; curtains: 40 mM Tris-HCl pH 8, 25-150 mM NaCl, 2 mM MgCl2, 1-2 mM DTT, 0.2 mg/ml

Molecule: Nc1ncnc2c1ncn2[C@@H]1O[C@H](COP(=O)(O)OP(=O)(O)O)[C@@H](O)[C@H]1O [ADP]
- single-molecule diffusion on DNA curtains (TIRF) [1]: Here we show that ADP and ATP also alter the interactions of the yeast Msh2–Msh3

Molecule: Nc1ncnc2c1ncn2[C@@H]1O[C@H](COP(=O)(O)OP(=O)(O)OP(=O)(O)O)[C@@H](O)[C@H]1O [ATP]
- ATPase assay, gamma-32P-ATP, PEI-cellulose TLC [2]: Gel shift and ATPase assays indicated that the QD-tagged Msh2–Msh3 retained biochemical activities

B1: 3'-ssDNA flap LS1/LS3/LS16 (mixed)
DNA 1: CACGCTACCGAATTCTGACTTGCTAGGACATCTTTGCCCACGTTGACCC
DNA 2: TCGATAGTCTCTAGATAGCATGTCCTAGCAAGTCAGAATTCGGTAGCGTG
DNA 3: GCTATCTAGAGACTATCGA
- binding result [3]: binds
